Article PMC11111691, “Cystine-knot peptide inhibitors of HTRA1 bind to a cryptic pocket within the active site region” (Nature Communications, 2024)
Positions of bridges follow the written chain, without caps; N, C: chain ends. Residues, ends and D or L forms follow the SMILES beside them.

Assays:
HTRA3^PD/PDZ, HTRA3^FL = target: T1, HTRA3^PD/PDZ, HTRA3^FL (Homo sapiens, UniProt P83110); experiment: Fluorescence-quenched casein-BODIPY assay, HTRA3; type: biochemical; settings: 2 µM CKP (0.5 mM 7mer-ABP)
T1 construct: purchased Abcam (FL form); the PD/PDZ form was made in house in E. coli ab134450
Protocol: (§1) The fluorescence-quenched casein-BODIPY® assay (EnzCheck®, Thermo Fisher Scientific) was carried out in TNC buffer (50 mM Tris pH 8.0, 200 mM NaCl, 0.25% CHAPS) at 37 °C in 96-well black optical bottom plates (Nalge Nunc Int., Rochester, NY). Enzymes were incubated with CKPs or DMSO control for 15 min prior to addition of casein substrate. The reactant concentrations were: 30 nM HTRA1^FL, 30 nM HTRA1^PD/PDZ, 30 nM HTRA1^PD, 30 nM HTRA2^PD/PDZ, 30 nM HTRA3^FL, 100 nM HTRA3^PD/PDZ, 30 nM HTRA4^FL, 300 nM HTRA4^PD/PDZ, 2 µM CKP, 5 µg/ml casein substrate and 0.25% DMSO. For selectivity assays, 0.5 mM 7mer-ABP was used as positive control. The kinetics of substrate cleavage were measured at 37 °C on a SpectraMax M5 microplate reader (Molecular Devices) with excitation of 485 nm and emission of 530 nm for 30 min (HTRA1 and HTRA2) or 5 h (HTRA3 and HTRA4). The determined initial rates of cleavage were expressed as percent of control (DMSO control) after subtracting the baseline rates (without enzyme).

HTRA4^PD/PDZ, HTRA4^FL [1] = target: T2, HTRA4^PD/PDZ, HTRA4^FL (Homo sapiens, UniProt P83105); experiment: Fluorescence-quenched casein-BODIPY assay, HTRA4; type: biochemical; settings: 30 nM HTRA4^FL, 2 µM CKP (0.5 mM 7mer-ABP)
T2 construct: purchased Abcam (FL form); the PD/PDZ form was made in house in E. coli ab134444
T2 sequence (P83105 32-476): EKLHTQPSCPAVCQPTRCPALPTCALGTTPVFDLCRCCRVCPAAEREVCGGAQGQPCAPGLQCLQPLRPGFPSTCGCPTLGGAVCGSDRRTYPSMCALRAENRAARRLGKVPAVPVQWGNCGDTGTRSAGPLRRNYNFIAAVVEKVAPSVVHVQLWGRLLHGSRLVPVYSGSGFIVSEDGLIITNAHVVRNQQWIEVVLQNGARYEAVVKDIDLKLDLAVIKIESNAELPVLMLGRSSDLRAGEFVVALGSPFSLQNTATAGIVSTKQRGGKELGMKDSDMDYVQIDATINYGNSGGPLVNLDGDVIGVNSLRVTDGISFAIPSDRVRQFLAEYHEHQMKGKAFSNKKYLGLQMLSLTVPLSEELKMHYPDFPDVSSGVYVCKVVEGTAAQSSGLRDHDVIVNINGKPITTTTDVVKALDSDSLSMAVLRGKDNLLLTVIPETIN
Protocol: as §1

HTRA4^PD/PDZ, HTRA4^FL [2] = target: T3, HTRA4^PD/PDZ, HTRA4^FL (Homo sapiens, UniProt P83105); experiment: Fluorescence-quenched casein-BODIPY assay, HTRA4; type: biochemical; settings: 300 nM HTRA4^PD/PDZ, 2 µM CKP (0.5 mM 7mer-ABP)
T3 construct: purchased Abcam (FL form); the PD/PDZ form was made in house in E. coli ab134444
T3 sequence (P83105 153-476): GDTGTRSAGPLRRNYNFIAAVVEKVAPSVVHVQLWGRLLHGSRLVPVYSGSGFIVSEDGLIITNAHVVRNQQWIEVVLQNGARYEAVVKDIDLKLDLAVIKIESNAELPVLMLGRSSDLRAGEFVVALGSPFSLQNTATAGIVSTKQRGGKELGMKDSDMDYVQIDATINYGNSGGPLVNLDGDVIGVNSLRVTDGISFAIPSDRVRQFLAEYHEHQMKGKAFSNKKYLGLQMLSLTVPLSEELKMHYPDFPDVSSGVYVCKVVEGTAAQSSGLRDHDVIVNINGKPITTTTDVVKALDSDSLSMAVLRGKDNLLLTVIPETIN
Protocol: as §1

HTRA1^PD(SA) = target: T4, HTRA1^PD(SA) (Homo sapiens, UniProt Q92743, S328A); experiment: SPR binding kinetics to HTRA1^PD(SA); settings: mean ± S.D. of three or more independent experiments
T4 construct: The protease domains of human HTRA1 (HTRA1^PD; D161-K379); made in house; host or cells: E. coli
Protocol: Surface plasmon resonance (SPR) experiments were performed using a Biacore S200 instrument at 25 °C. His-tagged HTRA proteins were captured on a CM5 sensor chip using the His-capture kit (GE Healthcare). Protein concentrations used for immobilization were as follows; HTRA1^PD(SA), HTRA1^PD and HTRA1^PD-ABP 2 µg/ml with 60-s injections at 10 µl/min, HTRA2^PD/PDZ, HTRA3^PD/PDZ, and HTRA4^PD/PDZ 4 µg/ml with 60-s injections at 10 µl/min. Approximate immobilization levels of HTRA proteins were as follows; HTRA1^PD(SA) 700 RU, HTRA1^PD 900 RU, HTRA1^PD-ABP 900 RU, HTRA2^PD/PDZ 500 RU, HTRA3^PD/PDZ 500 RU, HTRA4^PD/PDZ 500 RU. All CKPs were prepared in HBS-EP buffer (0.01 M HEPES pH 7.4, 0.15 M NaCl, 3 mM EDTA, 0.005% v/v Surfactant P20). All CKP concentrations were injected for 120 s at a flow rate of 30 μl/min. A reference channel was subtracted from the HTRA-captured channel.
Binding kinetics of peptides to HTRA1^PD(SA) were determined by flowing six serial three-fold dilutions of peptide over the HTRA1^PD(SA) immobilized surface using a single cycle kinetics model. CKP maximum concentrations were as follows: 1A7, 1A8, 1C10, 2D5, and 3A7, 300 nM; 1G10-ENI and 1D3-ENI, 100 nM; 3B3, 3000 nM; and CPI, 10,000 nM. Data were analyzed using GE BIA evaluation software using a 1:1 Langmuir binding model. The KD values, calculated from the determined kon and koff values, were the mean ± S.D. of 3–4 independent experiments.

MDCK monolayer = experiment: MDCK trans-well cell permeability assay; type: in vitro ADME, canine; settings: MDCK trans-well, apical to basolateral, up to 50 µM, 16 h, mass spectrometry
Protocol: We carried out a cell permeability study using a MDCK trans-well assay, which is commonly
used at Genentech for permeability screening of compounds . This assay measures the flux of test
compound (Papp, apparent permeability) across a MDCK monolayer from the apical to the
basolateral compartment over a 16 h period.
sensitive mass spectrometry method .
10x10-6 cm/s and compounds with Papp values of <1x10-6 cm/s are considered to be of low
Protocol of permeability assay:
Experiments were carried out as described (Chen et al. Evaluating the utility of canine Mdr1 knockout
Madin-Darby canine kidney I cells in permeability screening and efflux substrate determination, Mol
Cells were seeded in 96-well Corning Transwell plates (PET membrane, 1 µm pore size) at 75,000 cells
per well and grown in DMEM media supplemented with 10% FBS, 1% pen-strep and 1x Glutamax at
37C, 5% CO2 for 48 h to ensure monolayer formation. Stock solutions of the three CKPs 1B3, 1D3-ENI
and 1G10-ENI were diluted in Hank's Balanced Salt solution containing 25 mM HEPES, pH 7.4 and 25
µM of the monolayer integrity marker lucifer yellow. CKPs at a concentration of 50 µM were added to
the apical (donor) chamber and the CKP the apparent permeability (Papp) was determined by quantifying
the amount of CKP in the basolateral (receiver) chamber after 16 h incubation at 37C, 5% CO2. The
samples from the basolateral chamber were supplemented with the experiment analytical internal standard
(100 nM propranolol in 50% ACN:50% water with 0.1% formic acid) and then injected in a Sciex Zeno
TOF 7600 mass spectrometer using TOF/MS mode.

[3] = SPR Biacore S200, 25 °C, single cycle kinetics, 1:1 Langmuir model

T4 sequence (Q92743 161-379 S328A): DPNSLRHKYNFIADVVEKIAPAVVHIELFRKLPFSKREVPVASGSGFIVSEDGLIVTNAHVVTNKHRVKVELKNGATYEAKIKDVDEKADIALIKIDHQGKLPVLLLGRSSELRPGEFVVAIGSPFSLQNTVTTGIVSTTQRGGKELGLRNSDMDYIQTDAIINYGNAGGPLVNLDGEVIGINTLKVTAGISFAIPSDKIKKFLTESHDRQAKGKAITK

Compound	Inhibition of HTRA3^FL, casein-BODIPY cleavage (% of control) (HTRA3^PD/PDZ, HTRA3^FL; 30 nM HTRA3^FL)	Inhibition of HTRA3^PD/PDZ, casein-BODIPY cleavage (% of control) (HTRA3^PD/PDZ, HTRA3^FL; 100 nM HTRA3^PD/PDZ)	Inhibition of HTRA4^FL, casein-BODIPY cleavage (% of control) (HTRA4^PD/PDZ, HTRA4^FL [1])	Inhibition of HTRA4^PD/PDZ, casein-BODIPY cleavage (% of control) (HTRA4^PD/PDZ, HTRA4^FL [2])	koff (HTRA1^PD(SA); [3]) [s-1 x10-4]	kon (HTRA1^PD(SA); [3])	Kd (HTRA1^PD(SA); SPR, calculated from kon and koff, CPI up to 10 µM) [nM]	Cell permeability in the MDCK cell assay (MDCK monolayer)
DPMFKLV-phosphonate [7mer-ABP]	significantly inhibited	significantly inhibited	significantly inhibited	significantly inhibited				
CC[C@H](C)[C@H](NC(=O)[C@@H]1CCCN1C(=O)[C@H](CC(=O)O)NC(=O)[C@H](C)NC(=O)[C@@H](N)Cc1c[nH]cn1)C(=O)N[C@H]1CSSC[C@@H]2NC(=O)[C@H](Cc3ccccc3)NC(=O)[C@H](Cc3c[nH]c4ccccc34)NC(=O)[C@H](C)NC(=O)CNC(=O)[C@H](CO)NC(=O)[C@@H]3CSSC[C@@H](C(=O)NCC(=O)N4CCC[C@H]4C(=O)N[C@@H](Cc4ccc(O)cc4)C(=O)N[C@H](C(=O)NCC(N)=O)C(C)C)NC(=O)[C@H](CO)NC(=O)[C@H](Cc4c[nH]c5ccccc45)NC(=O)[C@H]([C@@H](C)O)NC(=O)[C@H](C)NC(=O)[C@H](Cc4ccc(O)cc4)NC(=O)[C@H](Cc4ccc(O)cc4)NC(=O)[C@H](CSSC[C@H](NC(=O)[C@@H]4CCCN4C(=O)[C@H](CCCCN)NC(=O)[C@H](CC(N)=O)NC1=O)C(=O)N[C@@H](CCCCN)C(=O)N[C@@H]([C@@H](C)O)C(=O)N[C@@H](Cc1c[nH]cn1)C(=O)N[C@@H](CC(=O)O)C(=O)N[C@@H](CC(=O)O)C(=O)N3)NC(=O)[C@H](C)NC(=O)[C@H](CCC(N)=O)NC2=O [3B3] (H-HADPICNKPCKTHDDCSGAWFCQACYYATWSCGPYVG-NH2; disulfide 6-22, 10-25, 16-32)					3.8 ± 0.5	1.1 ± 0.2 M-1 s-1 x104	34	no detectable cell permeability
